Entries after “also recorded” stand apart in the source; their conditions may differ. Read-outs that look alike come from different tables or passages of the source. Each block holds one molecule with its values, some of them ahead of it.
Experiments:
CamA [1] = biological target: T1, CamA (Clostridioides difficile, UniProt Q183J3); assay: CamA methylation inhibition assay; assay type: biochemical; conditions: for inhibition of CamA activity (selectivity panel) / inhibition of CamA activity at single concentration: 10 μM compound; for inhibition of CamA activity (selectivity panel): 40 μM SAM (Figure 4A); for fold difference in CamA inhibition between 11a and 11b: 11a more potent than 11b; for inhibition of CamA activity at single concentration: 50 nM CamA, 40 μM SAM (Figure 1B)
T1 sequence (Q183J3 1-577): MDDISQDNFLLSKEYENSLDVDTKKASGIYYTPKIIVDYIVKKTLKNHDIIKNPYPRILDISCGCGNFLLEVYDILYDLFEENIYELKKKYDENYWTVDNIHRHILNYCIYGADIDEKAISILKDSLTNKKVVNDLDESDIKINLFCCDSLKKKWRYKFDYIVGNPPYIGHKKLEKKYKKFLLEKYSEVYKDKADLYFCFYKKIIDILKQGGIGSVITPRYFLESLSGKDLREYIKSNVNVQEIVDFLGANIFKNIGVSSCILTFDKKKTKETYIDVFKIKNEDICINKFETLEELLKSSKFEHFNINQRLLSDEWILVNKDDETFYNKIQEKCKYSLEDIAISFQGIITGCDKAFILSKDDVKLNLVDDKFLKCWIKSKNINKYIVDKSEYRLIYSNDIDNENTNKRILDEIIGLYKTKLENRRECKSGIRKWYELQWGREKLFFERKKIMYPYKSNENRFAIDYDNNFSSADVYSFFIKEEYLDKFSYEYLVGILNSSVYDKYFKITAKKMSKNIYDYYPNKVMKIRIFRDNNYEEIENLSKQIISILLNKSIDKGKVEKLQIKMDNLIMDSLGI

PRMT1 = PRMT1 (Homo sapiens, UniProt Q99873); assay: PRMT1 inhibition, fluorescence-based SAHH-coupled assay; assay type: biochemical; conditions: for IC50: IC50 PRMT1, 0.1 μM PRMT1, 10 μM SAM, 5 μM H4 peptide (1–21)
PRMT1, sequence (Q99873 10-352 isoform Q99873-3): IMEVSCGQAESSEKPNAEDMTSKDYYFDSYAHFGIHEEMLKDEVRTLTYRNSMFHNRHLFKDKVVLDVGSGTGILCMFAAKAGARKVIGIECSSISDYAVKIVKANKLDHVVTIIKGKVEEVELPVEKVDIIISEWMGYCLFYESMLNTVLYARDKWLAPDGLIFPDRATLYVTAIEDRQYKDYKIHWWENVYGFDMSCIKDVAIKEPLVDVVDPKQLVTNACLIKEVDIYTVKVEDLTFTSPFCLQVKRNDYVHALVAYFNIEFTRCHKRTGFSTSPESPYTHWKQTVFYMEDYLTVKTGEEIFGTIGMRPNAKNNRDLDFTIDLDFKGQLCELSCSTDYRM

PRMT3 = PRMT3 (Homo sapiens, UniProt O60678); assay: PRMT3 inhibition, fluorescence-based SAHH-coupled assay; assay type: biochemical
PRMT3, sequence (O60678 211-531): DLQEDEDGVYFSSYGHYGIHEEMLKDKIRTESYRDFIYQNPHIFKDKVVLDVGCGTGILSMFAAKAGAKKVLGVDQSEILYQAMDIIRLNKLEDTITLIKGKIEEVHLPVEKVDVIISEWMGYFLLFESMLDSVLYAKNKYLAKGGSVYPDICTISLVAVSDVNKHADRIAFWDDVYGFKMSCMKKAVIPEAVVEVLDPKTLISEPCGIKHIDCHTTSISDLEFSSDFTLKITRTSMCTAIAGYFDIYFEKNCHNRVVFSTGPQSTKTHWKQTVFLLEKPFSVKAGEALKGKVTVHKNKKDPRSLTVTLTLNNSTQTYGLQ

MettL3–MettL14 = MettL3–MettL14 (Homo sapiens, UniProt Q86U44); assay: Compound selectivity assay; assay type: biochemical; conditions: for inhibition at 10 µM: read-out: inhibition of MettL3–MettL14 activity
MettL3–MettL14, sequence (Q86U44 whole entry): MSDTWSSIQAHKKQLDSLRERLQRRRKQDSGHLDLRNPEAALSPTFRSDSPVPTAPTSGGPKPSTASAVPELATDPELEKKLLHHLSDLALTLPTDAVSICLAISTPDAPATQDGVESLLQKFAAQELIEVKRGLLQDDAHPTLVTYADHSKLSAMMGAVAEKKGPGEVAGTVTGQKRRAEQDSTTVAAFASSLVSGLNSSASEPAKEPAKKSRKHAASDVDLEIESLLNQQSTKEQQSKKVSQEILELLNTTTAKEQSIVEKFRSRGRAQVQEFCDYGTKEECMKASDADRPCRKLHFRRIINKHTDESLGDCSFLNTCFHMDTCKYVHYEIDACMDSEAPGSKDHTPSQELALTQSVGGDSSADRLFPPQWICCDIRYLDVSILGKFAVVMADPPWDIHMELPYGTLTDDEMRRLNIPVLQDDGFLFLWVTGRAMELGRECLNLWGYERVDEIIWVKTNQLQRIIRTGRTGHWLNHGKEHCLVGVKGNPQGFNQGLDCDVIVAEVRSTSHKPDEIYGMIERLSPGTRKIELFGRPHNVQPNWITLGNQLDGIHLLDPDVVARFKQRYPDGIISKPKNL
MettL3–MettL14, sequence (Q9HCE5 whole entry partner): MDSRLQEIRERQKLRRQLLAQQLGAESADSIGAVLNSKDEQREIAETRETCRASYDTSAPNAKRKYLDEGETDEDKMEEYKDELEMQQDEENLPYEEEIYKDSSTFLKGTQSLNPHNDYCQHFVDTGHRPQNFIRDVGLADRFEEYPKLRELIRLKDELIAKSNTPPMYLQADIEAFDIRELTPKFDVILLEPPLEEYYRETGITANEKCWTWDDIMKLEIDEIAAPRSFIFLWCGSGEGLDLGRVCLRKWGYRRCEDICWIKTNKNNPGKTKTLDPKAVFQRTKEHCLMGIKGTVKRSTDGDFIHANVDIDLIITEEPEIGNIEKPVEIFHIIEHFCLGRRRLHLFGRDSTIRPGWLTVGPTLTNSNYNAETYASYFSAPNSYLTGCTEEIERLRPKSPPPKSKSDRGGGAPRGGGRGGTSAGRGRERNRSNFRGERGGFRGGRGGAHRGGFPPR

MettL5–Trm112 = MettL5–Trm112 (Homo sapiens, UniProt Q9NRN9); assay: Compound selectivity assay; assay type: biochemical; conditions: read-out: inhibition of MettL5–Trm112 activity
MettL5–Trm112, sequence (Q9NRN9 whole entry): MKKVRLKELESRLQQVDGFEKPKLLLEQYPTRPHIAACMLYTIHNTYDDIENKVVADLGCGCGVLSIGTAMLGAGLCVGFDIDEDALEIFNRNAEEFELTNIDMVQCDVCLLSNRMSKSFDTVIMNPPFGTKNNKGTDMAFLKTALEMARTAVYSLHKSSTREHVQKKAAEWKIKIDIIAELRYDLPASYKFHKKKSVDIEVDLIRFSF
MettL5–Trm112, sequence (Q9UI30 whole entry partner): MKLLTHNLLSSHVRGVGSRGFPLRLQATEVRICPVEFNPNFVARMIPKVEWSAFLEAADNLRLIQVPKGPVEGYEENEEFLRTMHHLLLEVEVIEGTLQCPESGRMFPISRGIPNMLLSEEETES

PCIF1 = PCIF1 (Homo sapiens, UniProt Q9H4Z3); assay: Compound selectivity assay; assay type: biochemical; conditions: read-out: inhibition of PCIF1 activity
PCIF1, sequence (Q9H4Z3 whole entry): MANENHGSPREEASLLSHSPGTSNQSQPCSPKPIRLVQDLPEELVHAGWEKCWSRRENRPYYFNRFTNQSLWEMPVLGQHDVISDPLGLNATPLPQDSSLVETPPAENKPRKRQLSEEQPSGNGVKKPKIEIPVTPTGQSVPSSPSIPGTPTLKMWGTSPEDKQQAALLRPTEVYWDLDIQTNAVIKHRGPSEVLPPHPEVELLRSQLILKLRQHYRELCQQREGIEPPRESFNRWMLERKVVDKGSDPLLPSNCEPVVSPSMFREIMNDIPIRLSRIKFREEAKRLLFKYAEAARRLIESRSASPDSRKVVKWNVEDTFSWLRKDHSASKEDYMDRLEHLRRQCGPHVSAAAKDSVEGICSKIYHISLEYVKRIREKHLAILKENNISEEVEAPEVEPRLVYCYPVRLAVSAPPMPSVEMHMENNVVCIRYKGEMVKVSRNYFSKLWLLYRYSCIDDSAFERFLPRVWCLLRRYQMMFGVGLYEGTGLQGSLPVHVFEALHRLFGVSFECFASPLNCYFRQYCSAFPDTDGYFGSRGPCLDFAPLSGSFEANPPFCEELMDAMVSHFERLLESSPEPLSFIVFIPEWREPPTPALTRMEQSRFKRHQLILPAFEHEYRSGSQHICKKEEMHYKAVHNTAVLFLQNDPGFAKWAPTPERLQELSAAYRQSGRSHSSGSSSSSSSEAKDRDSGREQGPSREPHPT

CamA [2] = biological target: T1, CamA; conditions: read-out: Km of CamA for SAM; previous measurements; cited from earlier work
MettL5 = conditions: read-out: SAM Km of MettL5; cited from earlier work
CcrM = CcrM (Caulobacter vibrioides, UniProt P0CAW2); assay: Compound selectivity assay; assay type: biochemical; conditions: read-out: inhibition of CcrM activity, 10 μM compound, 40 μM SAM (Figure 4B)
CcrM, sequence (P0CAW2 whole entry): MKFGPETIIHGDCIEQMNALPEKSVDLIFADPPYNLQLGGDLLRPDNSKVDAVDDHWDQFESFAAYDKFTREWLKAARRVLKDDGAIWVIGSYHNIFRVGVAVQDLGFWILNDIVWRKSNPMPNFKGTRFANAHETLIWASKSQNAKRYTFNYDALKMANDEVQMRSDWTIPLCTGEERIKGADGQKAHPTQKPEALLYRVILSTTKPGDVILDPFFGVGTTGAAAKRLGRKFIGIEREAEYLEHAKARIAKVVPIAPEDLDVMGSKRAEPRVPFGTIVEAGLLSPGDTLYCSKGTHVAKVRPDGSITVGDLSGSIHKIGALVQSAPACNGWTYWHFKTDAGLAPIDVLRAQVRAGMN

Dam = biological target: T2, Dam (Escherichia coli, UniProt P0AEE8); assay: Compound selectivity assay; assay type: biochemical; conditions: read-out: inhibition of Dam activity, 10 μM compound, 40 μM SAM (Figure 4C)
T2 sequence (P0AEE8 1-278): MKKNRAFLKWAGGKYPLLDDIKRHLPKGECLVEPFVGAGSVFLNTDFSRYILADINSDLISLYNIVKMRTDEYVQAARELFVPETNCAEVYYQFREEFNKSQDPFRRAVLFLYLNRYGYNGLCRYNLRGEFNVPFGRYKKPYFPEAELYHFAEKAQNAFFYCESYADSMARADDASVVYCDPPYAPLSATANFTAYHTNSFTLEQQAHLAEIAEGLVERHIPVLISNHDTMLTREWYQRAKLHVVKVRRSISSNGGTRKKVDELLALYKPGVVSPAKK

MettL16 = biological target: T3, MettL16 (Homo sapiens, UniProt Q86W50); assay: Compound selectivity assay; assay type: biochemical; conditions: read-out: inhibition of MettL16 activity, 10 μM compound, 160 μM SAM (Figure 4F)
T3 sequence (Q86W50 1-562): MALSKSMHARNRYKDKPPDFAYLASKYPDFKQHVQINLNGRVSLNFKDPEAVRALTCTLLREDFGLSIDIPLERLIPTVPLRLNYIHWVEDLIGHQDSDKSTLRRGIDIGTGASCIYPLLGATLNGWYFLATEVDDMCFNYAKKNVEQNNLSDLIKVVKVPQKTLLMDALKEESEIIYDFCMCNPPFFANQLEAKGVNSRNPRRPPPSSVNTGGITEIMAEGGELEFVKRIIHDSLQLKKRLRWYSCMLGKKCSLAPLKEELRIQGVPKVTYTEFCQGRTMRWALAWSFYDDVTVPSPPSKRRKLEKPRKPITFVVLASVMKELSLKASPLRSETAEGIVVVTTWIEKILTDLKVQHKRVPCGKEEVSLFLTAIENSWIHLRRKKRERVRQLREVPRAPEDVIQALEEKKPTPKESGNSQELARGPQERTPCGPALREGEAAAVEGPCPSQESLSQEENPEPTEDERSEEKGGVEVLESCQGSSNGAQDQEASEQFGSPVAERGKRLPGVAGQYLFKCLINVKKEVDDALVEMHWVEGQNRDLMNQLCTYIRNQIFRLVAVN

SMILES: N=C(NCCSC[C@H]1O[C@@H](n2cnc3c(NCCCc4ccccc4)ncnc32)[C@H](O)[C@@H]1O)NCC1CCCCC1 [11a, 1-(cyclohexylmethyl)-3-(2-((((2S,3S,4R,5R)-3,4-dihydroxy-5-(6-((3-phenylpropyl)amino)-9H-purin-9-yl)tetrahydrofuran-2-yl)methyl)thio)ethyl)guanidine]
IC50 (CamA [1]): ~150 nM
Ki (CamA [1]): 90 nM
inhibition of CamA activity (selectivity panel) (CamA [1]): ≥ 80%
fold difference in CamA inhibition between 11a and 11b (CamA [1]): 1.8 ×
fold improvement of CamA inhibition relative to 6e (CamA [1]; ratio of IC50 values): 10 ×
fold improvement of CamA inhibition relative to 7 (CamA [1]; ratio of IC50 values): 5 ×
mode of CamA inhibition (Lineweaver–Burk plot) (CamA [1]; with respect to SAM): competitive inhibition; also recorded: competitive inhibitor of SAM
IC50 (PRMT1): 14000 nM
fold reduction of PRMT1 inhibition from that of 6e (PRMT1; ratio of IC50 values): ~116 ×
IC50 (PRMT3): > 100000 nM
inhibition at 10 µM (MettL3–MettL14): ≤ 50%
inhibition at 10 µM (MettL5–Trm112): ≤ 50%
inhibition at 10 µM (PCIF1): ≤ 50%

inhibition of CamA activity at single concentration (CamA [1]): ~60%
SMILES: N=C(NCCCSC[C@H]1O[C@@H](n2cnc3c(N)ncnc32)[C@H](O)[C@@H]1O)NC1CCCCC1 [6d]

Km (CamA [1]; read-out: Km of CamA for SAM, Michaelis–Menten, varying SAM (Figure 2E)): 25 µM
SMILES: C[S+](CC[C@H](N)C(=O)[O-])C[C@H]1O[C@@H](n2cnc3c(N)ncnc32)[C@H](O)[C@@H]1O (stereo partly drawn) [SAM, S-Adenosyl-L-methionine]
Km (CamA [2]): > 17 µM
Km (MettL5): 1 µM

IC50 (CamA [1]): 270 nM
fold difference in CamA inhibition between 11a and 11b (CamA [1]): 1.8 ×
IC50 (PRMT1): 1200 nM
fold reduction of PRMT1 inhibition from that of 6e (PRMT1; ratio of IC50 values): 10 ×
fold stronger inhibition of PRMT1 than 11a (PRMT1; ratio of IC50 values): > 11 ×
inhibition at 10 µM (CcrM): ≤ 50%
inhibition at 10 µM (Dam): ≤ 50%
inhibition at 10 µM (MettL3–MettL14): ≤ 50%
inhibition at 10 µM (MettL5–Trm112): ~50%
inhibition at 10 µM (MettL16): ≤ 50%
inhibition at 10 µM (PCIF1): ≤ 50%
SMILES: N=C(NCCCSC[C@H]1O[C@@H](n2cnc3c(NCCCc4ccccc4)ncnc32)[C@H](O)[C@@H]1O)NCC1CCCCC1 [11b]

inhibition at 10 µM (CcrM): ≤ 50%
inhibition at 10 µM (Dam): ≤ 50%
inhibition at 10 µM (MettL3–MettL14): ≤ 50%
inhibition at 10 µM (MettL5–Trm112): ≤ 50%
inhibition at 10 µM (MettL16): ≤ 50%
inhibition at 10 µM (PCIF1): ≤ 50%
SMILES: OC[C@H]1O[C@@H](n2cnc3c(NCCCc4ccccc4)ncnc32)[C@H](O)[C@@H]1O [compound 7, N6-phenylpropyladenosine]
inhibition of PRMT1 (in words) (PRMT1): does not significantly inhibit; also recorded: inhibits neither
inhibition of PRMT3 (in words) (PRMT3): does not significantly inhibit; also recorded: inhibits neither

inhibition of CamA activity at single concentration (CamA [1]): ~10%
SMILES: N=C(NCCCSC[C@H]1O[C@@H](n2cnc3c(N)ncnc32)[C@H](O)[C@@H]1O)NCc1ccccc1 [6g]

inhibition of CamA activity at single concentration (CamA [1]): ~85%
inhibition of CamA activity (selectivity panel) (CamA [1]): ≥ 80%
fold improved potency of CamA inhibition relative to SGC0946 (CamA [1]; ratio of IC50 values): > 3 ×
fold weaker inhibition of CamA than of PRMT1 (CamA [1]; ratio of IC50 values CamA vs PRMT1): 12.5 ×
fold stronger inhibition of CamA than of PRMT3 (CamA [1]; ratio of IC50 values CamA vs PRMT3): > 4 ×
IC50 (PRMT3): 6500 nM
inhibition at 10 µM (CcrM): ≤ 50%
inhibition at 10 µM (Dam): ≤ 50%
IC50 (MettL3–MettL14): > 10000 nM
inhibition at 10 µM (MettL3–MettL14): ~50%
inhibition at 10 µM (MettL5–Trm112): ~50%
inhibition at 10 µM (MettL16): ≤ 50%
inhibition at 10 µM (PCIF1): ≤ 50%
SMILES: N=C(NCCCSC[C@H]1O[C@@H](n2cnc3c(N)ncnc32)[C@H](O)[C@@H]1O)NCC1CCCCC1 [6e]

inhibition of CamA compared with compounds 1–3 (in words) (CamA [1]; 10 μM, Figure 1B, also ref 31): much weaker inhibition
SMILES: Nc1ncnc2c1ccn2[C@@H]1O[C@H]([C@H](O)c2ccccc2)[C@@H](O)[C@H]1O [LLY-283, reference compound]

Source: PMC10127221 (ACS Chemical Biology, 2023)
